The test system of one assay is Candida albicans. Description: Antifungal activity against Candida albicans IFO 1061 after 48 hrs by serial broth dilution test. It counts as functional. The following applies: IFO 1061, 48 h.
For a further assay, the system named is Staphylococcus aureus. As to the kind of experiment: Antibacterial activity against Staphylococcus aureus after 24 hrs by serial broth dilution test. Format: functional. A general note: Dilution methods test growth across graded concentrations, often in twofold steps.
In a further assay the test system is Escherichia coli. As to the kind of experiment: Antibacterial activity against Escherichia coli IFO 026 after 24 hrs by serial broth dilution test. Format: functional. The settings on record: IFO 026, 24 h.
The next assay deals with Salmonella enteritidis. As to the kind of experiment: Antibacterial activity against Salmonella enteritidis after 24 hrs by serial broth dilution test. The settings on record: Salmonella enterica. Format: functional, Salmonella enterica subsp. enterica serovar Enteritidis.
The next assay concerns Bacillus subtilis. As to the kind of experiment: Antibacterial activity against Bacillus subtilis after 24 hrs by serial broth dilution test. Format: functional.

Experimental findings from ChEMBL document CHEMBL1150950, “Antimicrobial activity of 8-alkyl- and 8-phenyl-substituted berberines and their 12-bromo derivatives” (1998) are described below.

As a reminder, the MIC is the least concentration at which growth counts as inhibited. A low value points to a more susceptible organism.

For `CCc1c2c(OC)c(OC)cc(Br)c2cc2[n+]1CCc1cc3c(cc1-2)OCO3.[Cl-]`, the MIC in the assay on Candida albicans turned out to be 250 µg/mL; against Staphylococcus aureus, 31.2 µg/mL; in the assay with Escherichia coli, 500 µg/mL; with Salmonella enteritidis it was 31.2 µg/mL; with Bacillus subtilis, 31.2 µg/mL.
In the case of `COc1cc(Br)c2cc3[n+](cc2c1OC)CCc1cc2c(cc1-3)OCO2.[Cl-]`, the MIC was 500 µg/mL in the assay on Candida albicans; 125 µg/mL against Staphylococcus aureus; more than 500 µg/mL in the assay with Escherichia coli; 125 µg/mL with Salmonella enteritidis; 125 µg/mL against Bacillus subtilis.
Take `CCCc1c2c(OC)c(OC)cc(Br)c2cc2[n+]1CCc1cc3c(cc1-2)OCO3.[Cl-]`: the MIC against Candida albicans was 125 µg/mL; in the assay on Staphylococcus aureus, 15.6 µg/mL; in the assay with Escherichia coli it was 500 µg/mL; against Salmonella enteritidis it was 15.6 µg/mL; against Bacillus subtilis, 15.6 µg/mL.
Consider `CCc1c2c(OC)c(OC)ccc2cc2[n+]1CCc1cc3c(cc1-2)OCO3.[Cl-]`, for which the MIC in the assay with Candida albicans was 125 µg/mL; against Staphylococcus aureus it was 62.5 µg/mL; with Escherichia coli it was more than 500 µg/mL; with Salmonella enteritidis, 62.5 µg/mL; against Bacillus subtilis it was 125 µg/mL.
Consider `COc1cc(Br)c2cc3[n+](c(-c4ccccc4)c2c1OC)CCc1cc2c(cc1-3)OCO2.[Cl-]`, for which the MIC against Candida albicans worked out at 250 µg/mL; with Staphylococcus aureus, 31.2 µg/mL; against Escherichia coli it was 500 µg/mL; against Salmonella enteritidis, 31.2 µg/mL; against Bacillus subtilis it was 31.2 µg/mL.
In the case of `CCCc1c2c(OC)c(OC)ccc2cc2[n+]1CCc1cc3c(cc1-2)OCO3.[Cl-]`, the MIC against Candida albicans amounted to 250 µg/mL; with Staphylococcus aureus it was 31.2 µg/mL; against Escherichia coli it was 500 µg/mL; in the assay with Salmonella enteritidis, 31.2 µg/mL; against Bacillus subtilis it was 62.5 µg/mL.
Take `CCCCc1c2c(OC)c(OC)cc(Br)c2cc2[n+]1CCc1cc3c(cc1-2)OCO3.[Cl-]`: the MIC against Candida albicans was 62.5 µg/mL; in the assay on Staphylococcus aureus, 7.8 µg/mL; in the assay with Escherichia coli, 250 µg/mL; against Salmonella enteritidis, 15.6 µg/mL; against Bacillus subtilis it was 7.8 µg/mL.
For `CCCCCCc1c2c(OC)c(OC)cc(Br)c2cc2[n+]1CCc1cc3c(cc1-2)OCO3.[Cl-]`, the MIC came to 15.6 µg/mL in the assay with Candida albicans; 3.9 µg/mL against Staphylococcus aureus; 125 µg/mL against Escherichia coli; 3.9 µg/mL against Salmonella enteritidis; 3.9 µg/mL against Bacillus subtilis.
Take `COc1ccc2cc3[n+](c(-c4ccccc4)c2c1OC)CCc1cc2c(cc1-3)OCO2.[Cl-]`: the MIC in the assay with Candida albicans is 250 µg/mL; against Staphylococcus aureus, 62.5 µg/mL; in the assay with Escherichia coli it was more than 500 µg/mL; in the assay on Salmonella enteritidis, 125 µg/mL; in the assay with Bacillus subtilis, 62.5 µg/mL.
For the molecule `COc1ccc2cc3[n+](c(C)c2c1OC)CCc1cc2c(cc1-3)OCO2.[Cl-]`, the minimum inhibitory concentration (MIC) is 250 µg/mL in the assay with Candida albicans; 125 µg/mL in the assay with Staphylococcus aureus; more than 500 µg/mL against Escherichia coli; 125 µg/mL against Salmonella enteritidis; 250 µg/mL against Bacillus subtilis.
As to `CCCCc1c2c(OC)c(OC)ccc2cc2[n+]1CCc1cc3c(cc1-2)OCO3.[Cl-]`, the MIC in the assay with Candida albicans stood at 250 µg/mL; against Staphylococcus aureus it was 15.6 µg/mL; against Escherichia coli it was 500 µg/mL; against Salmonella enteritidis, 31.2 µg/mL; against Bacillus subtilis, 31.2 µg/mL.
In the case of `COc1ccc2cc3[n+](cc2c1OC)CCc1cc2c(cc1-3)OCO2.[Cl-]` [BERBERINE CHLORIDE], the minimal inhibitory concentration (MIC) against Candida albicans is 500 µg/mL; in the assay on Staphylococcus aureus it was 250 µg/mL; in the assay with Escherichia coli it was more than 2000 µg/mL; against Salmonella enteritidis it was 500 µg/mL; with Bacillus subtilis, 1000 µg/mL.
For the molecule `NC[C@H]1O[C@H](O[C@H]2[C@H](O)[C@@H](O[C@H]3O[C@H](CO)[C@@H](O)[C@H](N)[C@H]3O)[C@H](N)C[C@@H]2N)[C@H](O)[C@@H](O)[C@@H]1O.O=S(=O)(O)O` [KANAMYCIN SULFATE], the MIC is more than 2000 µg/mL in the assay on Candida albicans; 31.2 µg/mL in the assay with Staphylococcus aureus; 31.2 µg/mL against Escherichia coli; 62.5 µg/mL against Salmonella enteritidis; 3.9 µg/mL with Bacillus subtilis.
